pIC50: −log10 of the molar value.
What was measured:
[1] = target: T1, PI3K delta (PI3 Kd) (Homo sapiens, UniProt O00329); test: kinobeads assay, PI3K delta; type: binding; details: Further Kinobeads Data; read-out: PI3Kd
T1 construct: endogenous in cells; host or cells: Jurkat, clone E6-1 (ATCC TIB-152) cell lysate
Summary of the method: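 Competitive binding in Jurkat cell lysate (5 mg/ml total protein): test compounds at various concentrations competed with beads bearing immobilized phenylmorpholin-chromen ligand. Bead-bound kinases were eluted and quantified by antibody dot blot with infrared detection; IC50 values came from dose-response curves.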

[2] = target: T2, PI3 Kgamma (PI3 Kg) (Homo sapiens, UniProt P48736); test: kinobeads assay, PI3Kgamma; type: binding; details: Further Kinobeads Data; read-out: PI3Kg
T2 construct: endogenous in cells; host or cells: cell lysate
Summary of the method: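 Competitive pull-down in cell lysate: compound (various conc.) + phenylmorpholin-chromen affinity beads, incubate, separate beads, elute. Multiplexed immunodetection of bound kinases; dose-response fit → IC50.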

T1 sequence (O00329 whole entry): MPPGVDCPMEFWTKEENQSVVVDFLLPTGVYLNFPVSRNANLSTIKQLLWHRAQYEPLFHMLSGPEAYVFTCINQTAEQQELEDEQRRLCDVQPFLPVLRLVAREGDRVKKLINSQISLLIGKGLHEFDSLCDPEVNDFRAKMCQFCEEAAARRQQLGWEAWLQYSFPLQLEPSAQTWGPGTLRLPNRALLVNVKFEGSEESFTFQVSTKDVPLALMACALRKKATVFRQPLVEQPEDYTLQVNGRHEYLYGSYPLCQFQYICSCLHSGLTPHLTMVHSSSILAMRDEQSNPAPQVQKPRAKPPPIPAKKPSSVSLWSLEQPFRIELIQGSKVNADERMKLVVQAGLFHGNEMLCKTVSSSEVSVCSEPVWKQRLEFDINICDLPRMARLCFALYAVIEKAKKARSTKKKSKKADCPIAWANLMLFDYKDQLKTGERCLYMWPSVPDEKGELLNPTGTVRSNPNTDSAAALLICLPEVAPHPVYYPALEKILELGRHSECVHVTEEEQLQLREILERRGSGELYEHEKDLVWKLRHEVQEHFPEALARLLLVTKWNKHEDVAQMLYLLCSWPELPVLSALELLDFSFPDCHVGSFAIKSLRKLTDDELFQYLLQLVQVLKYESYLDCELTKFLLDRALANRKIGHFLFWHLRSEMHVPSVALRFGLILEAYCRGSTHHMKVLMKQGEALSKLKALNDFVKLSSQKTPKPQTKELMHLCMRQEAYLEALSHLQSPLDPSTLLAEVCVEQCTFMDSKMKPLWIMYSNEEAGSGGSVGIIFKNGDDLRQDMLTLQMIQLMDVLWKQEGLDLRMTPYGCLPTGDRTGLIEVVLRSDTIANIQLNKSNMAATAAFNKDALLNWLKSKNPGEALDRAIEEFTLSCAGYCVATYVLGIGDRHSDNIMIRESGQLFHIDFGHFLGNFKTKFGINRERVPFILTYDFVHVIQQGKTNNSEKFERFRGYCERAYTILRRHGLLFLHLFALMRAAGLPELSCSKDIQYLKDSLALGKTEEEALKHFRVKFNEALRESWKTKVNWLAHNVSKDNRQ
T1 sequence (P27986 whole entry partner): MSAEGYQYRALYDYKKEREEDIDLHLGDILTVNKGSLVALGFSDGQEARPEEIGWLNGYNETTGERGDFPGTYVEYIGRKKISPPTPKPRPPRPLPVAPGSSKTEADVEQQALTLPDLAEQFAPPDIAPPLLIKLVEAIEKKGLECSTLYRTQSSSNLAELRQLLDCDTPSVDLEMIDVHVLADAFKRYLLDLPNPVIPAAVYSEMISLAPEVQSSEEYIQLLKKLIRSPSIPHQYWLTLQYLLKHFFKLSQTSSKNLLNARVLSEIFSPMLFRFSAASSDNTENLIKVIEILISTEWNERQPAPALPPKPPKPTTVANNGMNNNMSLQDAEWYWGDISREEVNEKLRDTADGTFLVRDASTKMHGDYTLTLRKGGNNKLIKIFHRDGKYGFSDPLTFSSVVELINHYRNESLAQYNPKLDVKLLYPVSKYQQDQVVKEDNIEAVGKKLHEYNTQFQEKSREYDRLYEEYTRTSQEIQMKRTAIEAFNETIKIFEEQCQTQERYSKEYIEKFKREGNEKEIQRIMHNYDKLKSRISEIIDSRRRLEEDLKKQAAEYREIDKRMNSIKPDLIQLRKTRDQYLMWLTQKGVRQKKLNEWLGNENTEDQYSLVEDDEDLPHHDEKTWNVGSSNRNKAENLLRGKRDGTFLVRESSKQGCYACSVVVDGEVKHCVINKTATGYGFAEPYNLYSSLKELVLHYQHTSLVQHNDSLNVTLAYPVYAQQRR
T2 sequence (P48736 whole entry): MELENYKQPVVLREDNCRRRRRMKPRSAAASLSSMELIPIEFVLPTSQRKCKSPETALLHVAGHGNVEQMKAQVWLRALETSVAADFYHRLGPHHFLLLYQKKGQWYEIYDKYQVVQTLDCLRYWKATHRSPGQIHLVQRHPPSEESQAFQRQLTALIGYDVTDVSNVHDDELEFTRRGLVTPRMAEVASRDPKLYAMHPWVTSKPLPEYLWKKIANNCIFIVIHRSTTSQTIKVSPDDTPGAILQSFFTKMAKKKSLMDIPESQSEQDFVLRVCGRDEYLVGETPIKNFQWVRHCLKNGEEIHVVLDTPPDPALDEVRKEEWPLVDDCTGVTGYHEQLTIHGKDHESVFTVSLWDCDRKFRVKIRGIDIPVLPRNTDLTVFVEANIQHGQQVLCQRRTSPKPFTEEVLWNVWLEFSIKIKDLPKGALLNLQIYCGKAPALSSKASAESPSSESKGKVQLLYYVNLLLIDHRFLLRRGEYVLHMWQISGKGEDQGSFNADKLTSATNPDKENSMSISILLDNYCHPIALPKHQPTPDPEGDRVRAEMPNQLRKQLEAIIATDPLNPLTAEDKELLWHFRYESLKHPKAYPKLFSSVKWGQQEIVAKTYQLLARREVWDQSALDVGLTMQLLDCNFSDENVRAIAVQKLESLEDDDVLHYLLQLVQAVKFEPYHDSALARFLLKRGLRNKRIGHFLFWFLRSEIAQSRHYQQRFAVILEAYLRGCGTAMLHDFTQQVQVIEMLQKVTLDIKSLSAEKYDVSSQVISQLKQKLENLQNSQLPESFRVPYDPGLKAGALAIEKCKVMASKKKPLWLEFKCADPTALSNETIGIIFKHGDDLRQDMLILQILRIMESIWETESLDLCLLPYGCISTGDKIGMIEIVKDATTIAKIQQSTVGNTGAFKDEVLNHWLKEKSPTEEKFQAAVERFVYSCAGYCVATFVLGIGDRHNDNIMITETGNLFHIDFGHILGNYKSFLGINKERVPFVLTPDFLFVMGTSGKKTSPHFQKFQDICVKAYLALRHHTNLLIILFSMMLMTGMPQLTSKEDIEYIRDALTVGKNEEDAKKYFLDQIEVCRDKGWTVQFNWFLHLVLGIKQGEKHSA

pIC50 [1]: < 5.00
pIC50 [2]: < 5.00
SMILES: C[C@@H]1COCCN1c1nc(-c2ccc(NC(=O)NC3CC3)cc2F)nc2c1CN(S(C)(=O)=O)C2 [Example 191, (R)-1-cyclopropyl-3-(3-fluoro-4-(4-(3-methylmorpholino)-6-(methylsulfonyl)-6,7-dihydro-5H-pyrrolo[3,4-d]pyrimidin-2-yl)phenyl)urea]

Source: patent US8785457B2 (Cellzome Limited, priority 2009, dated 2014)
